Legend:
Format in all cases: functional
Sporothrix schenckii [1] = test: Antifungal activity against Sporothrix schenckii MRSS4 isolate from cutaneous-lymphatic sporotrichosis patient after 72 hrs by modified NCCLS M38-A method
Sporothrix schenckii [2] = test: Antifungal activity against Sporothrix schenckii P30915 isolate from cutaneous-lymphatic sporotrichosis patient after 72 hrs by ATB Fungus 2 method
Sporothrix schenckii [3] = test: Antifungal activity against Sporothrix schenckii P14036 isolate from cutaneous-lymphatic sporotrichosis patient after 72 hrs by Sensititre YeastOne method
Sporothrix schenckii [4] = test: Antifungal activity against Sporothrix schenckii P3287 isolate from cutaneous-lymphatic sporotrichosis patient after 72 hrs by ATB Fungus 2 method
Sporothrix schenckii [5] = test: Antifungal activity against Sporothrix schenckii P0019 isolate from cutaneous-lymphatic sporotrichosis patient after 72 hrs by ATB Fungus 2 method
Sporothrix schenckii [6] = test: Antifungal activity against Sporothrix schenckii PJRC002 isolate from cutaneous-lymphatic sporotrichosis patient after 72 hrs by ATB Fungus 2 method
Sporothrix schenckii [7] = test: Antifungal activity against Sporothrix schenckii P10012 isolate from cutaneous-lymphatic sporotrichosis patient after 72 hrs by Sensititre YeastOne method
Sporothrix schenckii [8] = test: Antifungal activity against Sporothrix schenckii P26187 isolate from cutaneous-lymphatic sporotrichosis patient after 72 hrs by ATB Fungus 2 method
Candida parapsilosis [9] = test: Antifungal activity against Candida parapsilosis ATCC 22019 […] after 72 hrs by modified NCCLS M38-A method; conditions: Lodderomyces parapsilosis, ATCC 22019, 72 h
Sporothrix schenckii [10] = test: Antifungal activity against Sporothrix schenckii P3287 isolate from cutaneous-lymphatic sporotrichosis patient after 72 hrs by Sensititre YeastOne method
Sporothrix schenckii [11] = test: Antifungal activity against Sporothrix schenckii P3287 isolate from cutaneous-lymphatic sporotrichosis patient after 72 hrs by modified NCCLS M38-A method
Sporothrix schenckii [12] = test: Antifungal activity against Sporothrix schenckii PSSA81 isolate from cutaneous-lymphatic sporotrichosis patient after 72 hrs by Sensititre YeastOne method
Sporothrix schenckii [13] = test: Antifungal activity against Sporothrix schenckii P24255 isolate from cutaneous-lymphatic sporotrichosis patient after 72 hrs by ATB Fungus 2 method
Sporothrix schenckii [14] = test: Antifungal activity against Sporothrix schenckii P20825 isolate from cutaneous-lymphatic sporotrichosis patient after 72 hrs by modified NCCLS M38-A method
Sporothrix schenckii [15] = test: Antifungal activity against Sporothrix schenckii P25013 isolate from cutaneous-lymphatic sporotrichosis patient after 72 hrs by Sensititre YeastOne method
Sporothrix schenckii [16] = test: Antifungal activity against Sporothrix schenckii P0019 isolate from cutaneous-lymphatic sporotrichosis patient after 72 hrs by modified NCCLS M38-A method
Sporothrix schenckii [17] = test: Antifungal activity against Sporothrix schenckii P1621 isolate from cutaneous-lymphatic sporotrichosis patient after 72 hrs by ATB Fungus 2 method
Sporothrix schenckii [18] = test: Antifungal activity against Sporothrix schenckii P14954 isolate from cutaneous-lymphatic sporotrichosis patient after 72 hrs by Sensititre YeastOne method
Pichia kudriavzevii = test: Antifungal activity against Candida krusei ATCC 6258 […] after 72 hrs by modified NCCLS M38-A method; conditions: ATCC 6258, 72 h
Sporothrix schenckii [19] = test: Antifungal activity against Sporothrix schenckii P1621 isolate from cutaneous-lymphatic sporotrichosis patient after 72 hrs by Sensititre YeastOne method
Aspergillus flavus [20] = test: Antifungal activity against Aspergillus flavus ATCC 204304 […] after 72 hrs by modified NCCLS M38-A method; conditions: ATCC 204304, 72 h
Aspergillus flavus [21] = test: Antifungal activity against Aspergillus flavus ATCC 204304 […] after 72 hrs by Sensititre YeastOne method; conditions: ATCC 204304, 72 h
Aspergillus flavus [22] = test: Antifungal activity against Aspergillus flavus ATCC 204304 […] after 72 hrs by ATB Fungus 2 method; conditions: ATCC 204304, 72 h
Candida parapsilosis [23] = test: Antifungal activity against Candida parapsilosis ATCC 22019 […] after 72 hrs by Sensititre YeastOne method; conditions: Lodderomyces parapsilosis, ATCC 22019, 72 h

Measured: MIC

OC(Cn1cncn1)(Cn1cncn1)c1ccc(F)cc1F [FLUCONAZOLE]
128 µg/mL: Sporothrix schenckii [12] | Sporothrix schenckii [13] | Sporothrix schenckii [15] | Pichia kudriavzevii
> 128 µg/mL: Sporothrix schenckii [2] | Sporothrix schenckii [4] | Sporothrix schenckii [5] | Sporothrix schenckii [8] | Sporothrix schenckii [17]
> 64 µg/mL: Sporothrix schenckii [1] | Sporothrix schenckii [11] | Sporothrix schenckii [14] | Sporothrix schenckii [16]
> 256 µg/mL: Sporothrix schenckii [3] | Sporothrix schenckii [6] | Sporothrix schenckii [7] | Sporothrix schenckii [10] | Sporothrix schenckii [18] | Sporothrix schenckii [19]
1 µg/mL: Candida parapsilosis [9]

C[C@@H]1[C@H](O)[C@@H](C)/C=C/C=C/C=C/C=C/C=C/C=C/C=C/[C@H](O[C@@H]2O[C@H](C)[C@@H](O)[C@H](N)[C@@H]2O)C[C@@H]2O[C@](O)(C[C@@H](O)C[C@@H](O)[C@H](O)CC[C@@H](O)C[C@@H](O)CC(=O)O[C@H]1C)C[C@H](O)[C@H]2C(=O)O [AMPHOTERICIN B]
0.125 µg/mL: Sporothrix schenckii [16]
0.06 µg/mL: Sporothrix schenckii [1] | Sporothrix schenckii [12]
0.5 µg/mL: Sporothrix schenckii [3] | Candida parapsilosis [9] | Sporothrix schenckii [10] | Aspergillus flavus [21] | Sporothrix schenckii [19]
8 µg/mL: Sporothrix schenckii [4]
2 µg/mL: Sporothrix schenckii [13]
0.25 µg/mL: Sporothrix schenckii [7]
1 µg/mL: Sporothrix schenckii [6] | Sporothrix schenckii [15] | Sporothrix schenckii [18]
≤ 0.5 µg/mL: Sporothrix schenckii [2] | Sporothrix schenckii [5] | Sporothrix schenckii [17]
4 µg/mL: Sporothrix schenckii [8] | Aspergillus flavus [20]
> 16 µg/mL: Sporothrix schenckii [11] | Sporothrix schenckii [14] | Aspergillus flavus [22]

CCC(C)n1ncn(-c2ccc(N3CCN(c4ccc(OCC5COC(Cn6cncn6)(c6ccc(Cl)cc6Cl)O5)cc4)CC3)cc2)c1=O (stereo unspecified) [ITRACONAZOLE]
0.5 µg/mL: Sporothrix schenckii [1] | Candida parapsilosis [9] | Aspergillus flavus [20] | Sporothrix schenckii [14]
0.25 µg/mL: Candida parapsilosis [23] | Sporothrix schenckii [3] | Sporothrix schenckii [7] | Sporothrix schenckii [10] | Sporothrix schenckii [11] | Aspergillus flavus [21] | Aspergillus flavus [22] | Sporothrix schenckii [15] | Sporothrix schenckii [16] | Sporothrix schenckii [18] | Sporothrix schenckii [19]
0.06 µg/mL: Sporothrix schenckii [12]
1 µg/mL: Sporothrix schenckii [6] | Sporothrix schenckii [13] | Pichia kudriavzevii
2 µg/mL: Sporothrix schenckii [2] | Sporothrix schenckii [4] | Sporothrix schenckii [5] | Sporothrix schenckii [8] | Sporothrix schenckii [17]

Reference: ChEMBL document CHEMBL1150788, “In vitro susceptibility of Sporothrix schenckii to six antifungal agents determined using three different methods” (2007)
